Measurements: PubChem BioAssay (NCI)
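Briefly, cells in 96-well plates were exposed to five compound concentrations for 48 h, and endpoints were estimated by linear interpolation. TGI denotes the concentration required for complete inhibition of growth.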

Columns and labels:
Assay in all cases: NCI tumour cell line growth inhibition, 48 h
786-0 renal = tested on: 786-0 renal
A498 renal = tested on: A498 renal
A549 NSCLC = tested on: A549 NSCLC
ACHN renal = tested on: ACHN renal
BT-549 breast = tested on: BT-549 breast
CAKI-1 renal = tested on: CAKI-1 renal
CCRF-CEM leukemia = tested on: CCRF-CEM leukemia
COLO 205 colon = tested on: COLO 205 colon
DLD-1 colon = tested on: DLD-1 colon
DMS 114 small cell lung = tested on: DMS 114 small cell lung
DMS 273 small cell lung = tested on: DMS 273 small cell lung
DU-145 prostate = tested on: DU-145 prostate
EKVX NSCLC = tested on: EKVX NSCLC
HCC-2998 colon = tested on: HCC-2998 colon
HCT-116 colon = tested on: HCT-116 colon
HCT-15 colon = tested on: HCT-15 colon
HL-60(TB) leukemia = tested on: HL-60(TB) leukemia
HOP-18 NSCLC = tested on: HOP-18 NSCLC
HOP-62 NSCLC = tested on: HOP-62 NSCLC
HOP-92 NSCLC = tested on: HOP-92 NSCLC
HS 578T breast = tested on: HS 578T breast
HT29 colon = tested on: HT29 colon
IGROV1 ovarian = tested on: IGROV1 ovarian
K-562 leukemia = tested on: K-562 leukemia
KM12 colon = tested on: KM12 colon
KM20L2 colon = tested on: KM20L2 colon
LOX IMVI melanoma = tested on: LOX IMVI melanoma
M14 melanoma = tested on: M14 melanoma
M19-MEL melanoma = tested on: M19-MEL melanoma
MALME-3M melanoma = tested on: MALME-3M melanoma
MCF7 breast = tested on: MCF7 breast
MDA-MB-231 breast = tested on: MDA-MB-231 breast
MDA-MB-435 = tested on: MDA-MB-435
MDA-N = tested on: MDA-N
MOLT-4 leukemia = tested on: MOLT-4 leukemia
NCI-H226 lung = tested on: NCI-H226 lung
NCI-H23 lung = tested on: NCI-H23 lung
NCI-H460 lung = tested on: NCI-H460 lung
NCI-H522 lung = tested on: NCI-H522 lung
NCI/ADR-RES ovarian = tested on: NCI/ADR-RES ovarian
OVCAR-3 ovarian = tested on: OVCAR-3 ovarian
OVCAR-4 ovarian = tested on: OVCAR-4 ovarian
OVCAR-5 ovarian = tested on: OVCAR-5 ovarian
OVCAR-8 ovarian = tested on: OVCAR-8 ovarian
P388 leukemia = tested on: P388 leukemia
P388/ADR leukemia = tested on: P388/ADR leukemia
PC-3 prostate = tested on: PC-3 prostate
RPMI-8226 leukemia = tested on: RPMI-8226 leukemia
RXF 393 renal = tested on: RXF 393 renal
SF-268 CNS = tested on: SF-268 CNS
SF-295 CNS = tested on: SF-295 CNS
SF-539 CNS = tested on: SF-539 CNS
SK-MEL-2 melanoma = tested on: SK-MEL-2 melanoma
SK-MEL-28 melanoma = tested on: SK-MEL-28 melanoma
SK-MEL-5 melanoma = tested on: SK-MEL-5 melanoma
SK-OV-3 ovarian = tested on: SK-OV-3 ovarian
SN12C renal = tested on: SN12C renal
SN12K1 renal = tested on: SN12K1 renal
SNB-19 CNS = tested on: SNB-19 CNS
SNB-75 CNS = tested on: SNB-75 CNS
SNB-78 CNS = tested on: SNB-78 CNS
SR leukemia = tested on: SR leukemia
SW-620 colon = tested on: SW-620 colon
T-47D breast = tested on: T-47D breast
TK-10 renal = tested on: TK-10 renal
U251 CNS = tested on: U251 CNS
UACC-257 melanoma = tested on: UACC-257 melanoma
UACC-62 melanoma = tested on: UACC-62 melanoma
UO-31 renal = tested on: UO-31 renal
XF 498 CNS = tested on: XF 498 CNS

COc1cccc2c1C(=O)c1c(O)c3c(c(O)c1C2=O)C[C@@](O)(/C(C)=N/NC(=O)c1ccccc1)C[C@@H]3OC1CC(N)C(O)C(C)O1 (stereo not given in full)
TGI (786-0 renal): 0.744 µM | TGI (A498 renal): 3.42 µM | TGI (A549 NSCLC): 4.25 µM | TGI (ACHN renal): 0.975 µM | TGI (BT-549 breast): 1.45 µM | TGI (CAKI-1 renal): 1.47 µM | TGI (CCRF-CEM leukemia): 3.19 µM | TGI (COLO 205 colon): 3.2 µM | TGI (DLD-1 colon): 17.6 µM | TGI (DMS 114 small cell lung): 1.11 µM | TGI (DMS 273 small cell lung): 1.65 µM | TGI (DU-145 prostate): 0.903 µM | TGI (EKVX NSCLC): 3.02 µM | TGI (HCC-2998 colon): 2.02 µM | TGI (HCT-116 colon): 10.2 µM | TGI (HCT-15 colon): 19.9 µM | TGI (HL-60(TB) leukemia): 0.771 µM | TGI (HOP-18 NSCLC): 6.61 µM | TGI (HOP-62 NSCLC): 0.715 µM | TGI (HOP-92 NSCLC): 1.11 µM | TGI (HS 578T breast): 1.82 µM | TGI (HT29 colon): 6.04 µM | TGI (IGROV1 ovarian): 6.35 µM | TGI (K-562 leukemia): 4.25 µM | TGI (KM12 colon): 6.64 µM | TGI (KM20L2 colon): 9.23 µM | TGI (LOX IMVI melanoma): 0.709 µM | TGI (M14 melanoma): 1.48 µM | TGI (M19-MEL melanoma): 2.99 µM | TGI (MALME-3M melanoma): 1.3 µM | TGI (MCF7 breast): 2.93 µM | TGI (MDA-MB-231 breast): 3.14 µM | TGI (MDA-MB-435): 2.15 µM | TGI (MDA-N): 1.96 µM | TGI (MOLT-4 leukemia): 0.681 µM | TGI (NCI-H226 lung): 0.786 µM | TGI (NCI-H23 lung): 1.54 µM | TGI (NCI-H460 lung): 3.55 µM | TGI (NCI-H522 lung): 1.1 µM | TGI (NCI/ADR-RES ovarian): 76 µM | TGI (OVCAR-3 ovarian): 4.55 µM | TGI (OVCAR-4 ovarian): 7.74 µM | TGI (OVCAR-5 ovarian): 4.73 µM | TGI (OVCAR-8 ovarian): 5.96 µM | TGI (P388 leukemia): 1.61 µM | TGI (P388/ADR leukemia): 35.6 µM | TGI (PC-3 prostate): 1.75 µM | TGI (RPMI-8226 leukemia): 3.85 µM | TGI (RXF 393 renal): 1.28 µM | TGI (SF-268 CNS): 3.35 µM | TGI (SF-295 CNS): 1.84 µM | TGI (SF-539 CNS): 1.58 µM | TGI (SK-MEL-2 melanoma): 1.41 µM | TGI (SK-MEL-28 melanoma): 4.02 µM | TGI (SK-MEL-5 melanoma): 0.74 µM | TGI (SK-OV-3 ovarian): 4.56 µM | TGI (SN12C renal): 5.7 µM | TGI (SN12K1 renal): 1.88 µM | TGI (SNB-19 CNS): 7.86 µM | TGI (SNB-75 CNS): 1.97 µM | TGI (SNB-78 CNS): 6.1 µM | TGI (SR leukemia): 0.845 µM | TGI (SW-620 colon): 4.89 µM | TGI (T-47D breast): 3.44 µM | TGI (TK-10 renal): 5.85 µM | TGI (U251 CNS): 7.18 µM | TGI (UACC-257 melanoma): 3.51 µM | TGI (UACC-62 melanoma): 1.19 µM | TGI (UO-31 renal): 8.69 µM | TGI (XF 498 CNS): 0.242 µM
